Measured values taken from patent US8124056B2, “High throughput genetic screening of lipid and cholesterol processing using fluorescent compounds” (Trustees of the University of Pennsylvania, priority 2000, dated 2012).

Key:
5 dpf zebrafish larvae = test: Gall bladder fluorescence in 5 dpf zebrafish larvae soaked in fluorescent lipids; details: 5 dpf larvae soaked in the lipid
Method: A. Bright-field image of a 5 dpf larva soaked in PED6 (3 μg/ml, 2 hr). B. Corresponding fluorescent image, with intestinal (arrow) and gall bladder (arrowhead) labeling. C. Larva soaked in BODIPY-C5-PC (0.2 μg/ml).
To determine whether these reagents could be used to study organ specific PLA2 activity, the quenched fluorescent lipids were administered to zebrafish larvae at 5 dpf, a developmental stage when the major larval organ systems function (FIG. 2).
First, to establish that PED6 is swallowed by the larvae, an unquenched fluorescent lipid was administered to 5 dpf larvae, and the appearance of labeled lipid in the pharynx and intestinal lumen before the gallbladder was noted (FIGS. 3C & 4). […] Dissected adult gall bladders were lysed in embryo medium (EM) (30 μl) containing BODIPY-FL-C5-PC (0.1 μg) to release bile. PLA2 activity was determined as described (1). Measurements were compared with activity of bile-depleted gallbladders. […] Fluorescent images were captured over 1 hr using a Zeiss Axiocam 2 mounted on a Leica MZFL-III.

mice = test: Biliary fluorescence in mice given PED6 by gavage; format: in vivo, mouse; details: PED6 1 μg by gavage, t=30 min
Method: FIG. 5. Lipid processing. […] C. Mouse digestive organs. D. Gall bladder fluorescence after processing (t=30 min) of PED6 (1 μg), administered by gavage. Symbols: gb, ball bladder; d, common bile duct; lv, liver. Scale bars, 1.0 mm (C and D), 200 μm (other images).

Row | Compound | time to gall bladder fluorescence after ingesting the lipid (5 dpf zebrafish larvae) [min] | biliary (gall bladder) fluorescence after gavage (mice)
1 | nitrobenzoxadiazole cholesterol [NDB cholesterol] | ≤ 30 | –
2 | CCCCCCCCCCCCCCCC(=O)OC[C@H](COP(=O)(O)OCCNC(=O)CCCCCNc1ccc([N+](=O)[O-])cc1[N+](=O)[O-])OC(=O)CCCCC1=[N+]2C(=Cc3c(C)cc(C)n3[B-]2(F)F)C=C1 [PED6, N-((6-(2,4-dinitrophenyl)amino)hexanoyl)-1-palmitoyl-2-BODIPY-FL-pentanoyl-sn-glycero-3-phosphoethanolamine] | 15 to 20 | rapid appearance of biliary fluorescence
